Assay results published in patent US10653139B2 (priority 2015, dated 2020).

Legend:
Acanthoscelides obtectus = assay: Insecticidal activity test, vapour phase, bean; format: in vivo; conditions: 7.5 μL/mL
grain maize germination = assay: In vitro germination assay of treated seeds; conditions: 3.5 months treatments, in vitro after 4 days (FIG. 2A)
Protocol: (§1) FIG. 2—Represents the effect of 3.5 months treatments on grain maize germination: (A) in vitro after 4 days and (B) in vivo 17 days after sowing (DAS).
In an embodiment, for the in vitro germination assay were used 10 seeds and 5 ml of sterile water per petri dish and the incubation temperature was ±25° C.

[1] = test system: plants produced from treated seeds; assay: In vivo effects on plants from treated seeds (pots in greenhouse); set-up: species or system maize
Protocol: as §1
In an embodiment, the assay was performed in pots in a greenhouse with environmental monitoring (temperature, humidity and PAR intensity) and controlled irrigation. For each treatment, 6 pots with 2 plants each were used. […] No relevant differences in phenotypic (germination, chlorophyll and height) and physiological parameters (photosynthesis, stomatal conductance and transpiration (FIG. 3) were found.

Penicillium islandicum [2] = assay: Antifungal in vitro assay, volatile (vapour) phase; format: cell-based; conditions: observed over 25 weeks
Protocol: (§2) Petri dishes were inoculated with a 5 mm diameter disk of fungi grown on PDA medium for 8 days at 28° C. This disk was placed on the agar surface and the dish sealed immediately with parafilm and incubated at 28° C. Inhibition concentrations of volatile phase of essential oils were determined by a periodic evaluation the fungi growth over 25 weeks. In the control, equal amounts of sterilized water was added to filter papers and placed onto the lid of Petri dishes. For each concentration, four replicate Petri dishes were used. The absence of growth was recorded during 25 weeks.

Aspergillus candidus [3] = assay: Antifungal in vitro assay, volatile (vapour) phase; format: cell-based; conditions: observed over 25 weeks
Protocol: as §2

Fusarium culmorum [4] = assay: Antifungal in vitro assay, volatile (vapour) phase; format: cell-based; conditions: observed over 25 weeks
Protocol: as §2

Aspergillus niger [5] = assay: Antifungal in vitro assay, volatile (vapour) phase; format: cell-based; conditions: observed over 25 weeks
Protocol: as §2

Penicillium islandicum [6] = assay: Antifungal in vitro assay, direct plating; format: cell-based; conditions: observed over 25 weeks
Protocol: (§3) The screening of S. aromaticum and M. pulegium essential oils and their major components, eugenol and pulegone, respectively, was carried out using a direct plating technique in order to evaluate their ability to inhibit the growth of Aspergillus candidus, A. niger, Penicillium islandicum and Fusarium culmorum.
(§4) In vitro assays. For the determination of direct plating effect of essential oil on the growth of the fungi on different concentrations 0.5, 1.0, 2.5 and 5.0 μL/mL of essential oil were put on the surface of a Petri dish with 20 mL of potato dextrose agar medium (PDA). These Petri dishes were inoculated with a 5 mm diameter disk of fungi grown on PDA medium for 8 days at 28° C. This disk was placed on the agar surface and the dish sealed immediately with parafilm to prevent loss of essential oil to the atmosphere and incubated at 28° C. Inhibition concentrations of essential oil were determined by periodic evaluation of fungi growth during 25 weeks. For each concentration, four replicate dishes were used.

Aspergillus candidus [7] = assay: Antifungal in vitro assay, direct plating; format: cell-based; conditions: observed over 25 weeks
Protocol: as §3, §4

Fusarium culmorum [8] = assay: Antifungal in vitro assay, direct plating; format: cell-based; conditions: observed over 25 weeks
Protocol: as §3, §4

Aspergillus niger [9] = assay: Antifungal in vitro assay, direct plating; format: cell-based; conditions: observed over 25 weeks
Protocol: as §3, §4

[10] = test system: fungi growth on dried grains; assay: Antifungal in vivo test on dried grains, vapour phase; conditions: dried grains on PDA, 25 weeks
Source text: 1.2 In vivo tests. The efficacy screening of the vapour of clove and pennyroyal essential oils (OE) and their main active components (MAC) eugenol, pulegone or their mixture was, carried out using a modified technique describe in Bluma, R., Landa, M. F., Etcheverry, M., 2009. Impact of volatile compounds generated by essential oils on Aspergillus section Flavi growth parameters and aflatoxin accumulation. J. Sci. Food Agric. 89 (9), 1473-1480. For the determination of volatile phase effect of essential oil on fungi growth different concentrations of essential oil were added to sterile filter papers (10 mm diameter, Whatman No. 1), namely, 0.5 μL/mL, 1.0 μL/mL, 2.5 μL/mL and 5.0 μL/mL and placed adherent to the inner surface of each Petri dishes lid (90 mm).
The grains were disinfected at surface as describe by Pitt & Hocking (Pitt, J. I., Hocking, A. D., 2009. Fungi and food spoilage. Springer, New York).
Ten dried grains were placed on Petri dishes with 20 mL of PDA medium with chloramphenicol (1%). These dishes were sealed immediately with parafilm and incubated at 28° C. Inhibition concentrations of volatile phase of essential oils were determined by periodic observation of fungi growth over 25 weeks. Control with no treated grains was also performed. For each concentration ten replicates were done.

Sitophilus zeamais = assay: Insecticidal activity test, vapour phase, maize; format: in vivo; conditions: 18.8 μL/mL
Protocol: Maize grain with an average moisture content of 14±0.5% and ten unsexed adult insects aged from 1 to 4 days were used. The stock cultures of insects and the biological tests were carried out in a single incubator at 27° C. and 75±5% relative humidity.
Control with non-treated samples was also performed. Ten replicates per treatment and control were set up. All the replicates were kept in an incubator at 27° C. and 75%±5% relative humidity.
The progeny (F1) was evaluated monthly by common procedures after removing the parent adults. Insect mortality was assessed during five months (0.25, 1, 8, 134 and 149 days). The development index and the life cycle were also evaluated.

[11] = Container atmosphere composition (GC-PID); format: physicochemical; conditions: after 20 days of storage, one or two devices, 24 ml pulegone, 65 L container, maintained 4/5 months
Protocol: To study the evolution of the spatial and temporal pulegone concentration, two containers with 1 and 2 release devices were used, similar to those described in 4.1. In each container, 24 ml of pulegone were impregnated in cotton.
The spatial concentration profiles along time were outlined by collecting over time samples of 500 μL from the container atmosphere, through the 6 sampling ports (detailed presentation in FIG. 1) using a 500 μL gas-tight Hamilton syringe.
Nitrogen was used as carrier gas at a constant 2 mL flow rate.

C=C(C)[C@H]1CC=C(C)CC1 [Limonene, reference compound]
Insect Mortality (%) (Acanthoscelides obtectus; 0.25 days): 0%
Insect Mortality (%) (Acanthoscelides obtectus; 1 day (control 29)): 100%
Insect Mortality (%) (Acanthoscelides obtectus; 8 days (control 100)): 100%
Insect Mortality (%) (Acanthoscelides obtectus; 134 days (control 100)): 100%
Insect Mortality (%) (Acanthoscelides obtectus; 149 days (control 100)): 100%
seed germination capacity, in vitro (grain maize germination): significant decrease
height of plants relatively to the control ([1]; plants from treated seeds (FIG. 4A)): small variation
decrease in total chlorophyll content related to the control ([1]; plants obtained from treated grains): 1.9%
germination, in vivo ([1]; pots in greenhouse, figure printed in brackets after 'really affected the germination'): 49.1%

C=CCc1ccc(O)c(OC)c1 [Eugenol, eugenol]
Insect Mortality (%) (Acanthoscelides obtectus; 0.25 days): 0%
Insect Mortality (%) (Acanthoscelides obtectus; 1 day (control 29)): 70%
Insect Mortality (%) (Acanthoscelides obtectus; 8 days (control 100)): 100%
Insect Mortality (%) (Acanthoscelides obtectus; 134 days (control 100)): 100%
Insect Mortality (%) (Acanthoscelides obtectus; 149 days (control 100)): 100%
Time (weeks), period of storage without any fungal contamination (Penicillium islandicum [2]; 0.5 μL/mL): 25 weeks
Time (weeks), period of storage without any fungal contamination (Penicillium islandicum [2]; 1.0 μL/mL): 25 weeks
Time (weeks), period of storage without any fungal contamination (Penicillium islandicum [2]; 2.5 μL/mL): 25 weeks
Time (weeks), period of storage without any fungal contamination (Penicillium islandicum [2]; 5.0 μL/mL): 25 weeks
Time (weeks), period of storage without any fungal contamination (Aspergillus candidus [3]; 0.5 μL/mL): 21 weeks
Time (weeks), period of storage without any fungal contamination (Aspergillus candidus [3]; 1.0 μL/mL): 25 weeks
Time (weeks), period of storage without any fungal contamination (Aspergillus candidus [3]; 2.5 μL/mL): 25 weeks
Time (weeks), period of storage without any fungal contamination (Aspergillus candidus [3]; 5.0 μL/mL): 25 weeks
Time (weeks), period of storage without any fungal contamination (Fusarium culmorum [4]; 0.5 μL/mL): 25 weeks
Time (weeks), period of storage without any fungal contamination (Fusarium culmorum [4]; 1.0 μL/mL): 25 weeks
Time (weeks), period of storage without any fungal contamination (Fusarium culmorum [4]; 2.5 μL/mL): 25 weeks
Time (weeks), period of storage without any fungal contamination (Fusarium culmorum [4]; 5.0 μL/mL): 25 weeks
Time (weeks), period of storage without any fungal contamination (Aspergillus niger [5]; 0.5 μL/mL): 23 weeks
Time (weeks), period of storage without any fungal contamination (Aspergillus niger [5]; 1.0 μL/mL): 25 weeks
Time (weeks), period of storage without any fungal contamination (Aspergillus niger [5]; 2.5 μL/mL): 25 weeks
Time (weeks), period of storage without any fungal contamination (Aspergillus niger [5]; 5.0 μL/mL): 25 weeks
Time (weeks), period of storage without any fungal contamination (Penicillium islandicum [6]; 0.5 μL/mL): 25 weeks
Time (weeks), period of storage without any fungal contamination (Penicillium islandicum [6]; 1.0 μL/mL): 25 weeks
Time (weeks), period of storage without any fungal contamination (Penicillium islandicum [6]; 2.5 μL/mL): 25 weeks
Time (weeks), period of storage without any fungal contamination (Penicillium islandicum [6]; 5.0 μL/mL): 25 weeks
Time (weeks), period of storage without any fungal contamination (Aspergillus candidus [7]; 0.5 μL/mL): 25 weeks
Time (weeks), period of storage without any fungal contamination (Aspergillus candidus [7]; 1.0 μL/mL): 25 weeks
Time (weeks), period of storage without any fungal contamination (Aspergillus candidus [7]; 2.5 μL/mL): 25 weeks
Time (weeks), period of storage without any fungal contamination (Aspergillus candidus [7]; 5.0 μL/mL): 25 weeks
Time (weeks), period of storage without any fungal contamination (Fusarium culmorum [8]; 0.5 μL/mL): 25 weeks
Time (weeks), period of storage without any fungal contamination (Fusarium culmorum [8]; 1.0 μL/mL): 25 weeks
Time (weeks), period of storage without any fungal contamination (Fusarium culmorum [8]; 2.5 μL/mL): 25 weeks
Time (weeks), period of storage without any fungal contamination (Fusarium culmorum [8]; 5.0 μL/mL): 25 weeks
Time (weeks), period of storage without any fungal contamination (Aspergillus niger [9]; 0.5 μL/mL): 25 weeks
Time (weeks), period of storage without any fungal contamination (Aspergillus niger [9]; 1.0 μL/mL): 25 weeks
Time (weeks), period of storage without any fungal contamination (Aspergillus niger [9]; 2.5 μL/mL): 25 weeks
Time (weeks), period of storage without any fungal contamination (Aspergillus niger [9]; 5.0 μL/mL): 25 weeks
Time (weeks), period of storage without any fungal contamination, in vivo ([10]; 0.5 μL/mL): 2 weeks
Time (weeks), period of storage without any fungal contamination, in vivo ([10]; 2.5 μL/mL): 25 weeks
Time (weeks), period of storage without any fungal contamination, in vivo ([10]; 5.0 μL/mL): 25 weeks

CC(C)=C1CC[C@@H](C)CC1=O [Pulegone, pulegone]
Insect Mortality (%) (Sitophilus zeamais; 0.25 days): 46%
Insect Mortality (%) (Sitophilus zeamais; 1 day): 100%
Insect Mortality (%) (Sitophilus zeamais; 8 days): 100%
Insect Mortality (%) (Sitophilus zeamais; 134 days): 100%
Insect Mortality (%) (Sitophilus zeamais; 149 days): 100%
Insect Mortality (%) (Acanthoscelides obtectus; 0.25 days): 0%
Insect Mortality (%) (Acanthoscelides obtectus; 1 day (control 29)): 100%
Insect Mortality (%) (Acanthoscelides obtectus; 8 days (control 100)): 100%
Insect Mortality (%) (Acanthoscelides obtectus; 134 days (control 100)): 100%
Insect Mortality (%) (Acanthoscelides obtectus; 149 days (control 100)): 100%
stabilized concentration level in the container atmosphere [11]: 10 % of the standard pulegone saturation value
Time (weeks), period of storage without any fungal contamination, in vivo ([10]; 0.5 μL/mL): 2 weeks
Time (weeks), period of storage without any fungal contamination, in vivo ([10]; 2.5 μL/mL): 20 weeks
Time (weeks), period of storage without any fungal contamination, in vivo ([10]; 5.0 μL/mL): 25 weeks
